The text below walks through data of patent US20100184683A1, “ANTIBACTERIAL AND ANTIFUNGAL PEPTIDES” (C3 JIAN, INC., priority 2009, published 2010).

For orientation: MIC means the smallest concentration in the dilution series that meets the test's criterion for growth inhibition. A lower MIC goes with inhibition by little substance.

The subject of one test is S. mutans. It counts as cell-based, Streptococcus mutans. Conditions: S. mutans; TH supplemented with 1% sucrose, 37° C., anaerobic; inoculum 10^5 CFU/ml; 18-24 h or 48 h. On the procedure: (§1) In certain embodiments the MIC assays are performed as described herein in the Examples. For each organism, the media and growth conditions utilized is detailed in Table 8.
(§2) In certain embodiments the MIC assays are performed as follows: For each organism, the media and growth conditions utilized is detailed in Table 8.

The subject of the next test is T. rubrum. It counts as cell-based, Trichophyton rubrum. The essentials: (§3)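 Each organism was grown in its own designated medium under its own growth conditions, and the MIC was then recorded.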
The subject of another test is M. furfur. The test can be described thus: MIC assay, M. furfur. In kind it is cell-based, Malassezia furfur. Particulars: ATCC medium 1072, 37° C., aerobic, inoculum 10^5 CFU/ml, 18-24 h or 48 h. As for the experimental part: as §1, §2
The next test concerns S. epidermidis. It counts as cell-based. Summed up:
as §3

The subject of the next test is P. aeruginosa. In kind it is cell-based, Pseudomonas aeruginosa. Conditions: P. aeruginosa; MH, 37° C., aerobic; inoculum 10^5 CFU/ml; 18-24 h or 48 h. As for the experimental part:
as §1, §2

The test system of the next test is MRSA. In kind it is cell-based, Methicillin-resistant Staphylococcus aureus. The essentials:
as §3

For a further test, the system named is B. subtilis. It counts as cell-based, Bacillus subtilis. Summed up:
as §3

A further test relates to P. gingivalis. It counts as cell-based, Porphyromonas gingivalis. Particulars: P. gingivalis; Columbia broth, 37° C., anaerobic; inoculum 10^5 CFU/ml; 18-24 h or 48 h. On the procedure: as §1, §2
For the next test, the system named is C. jeikeium. The test is described as follows: MIC assay, C. jeikeium. It counts as cell-based, Corynebacterium jeikium. Particulars: TSB supplemented with 1% Tween-80, 37° C., aerobic, inoculum 10^6 CFU/ml, 18-24 h or 48 h. As for the experimental part: as §1, §2
For the next test, the system named is E. faecalis. It counts as cell-based, Enterococcus faecalis. As for the experimental part: as §1, §2
For the next test, the system named is C. albicans. In kind it is cell-based, Candida albicans. Summed up: as §3
Another test concerns A. niger. It counts as cell-based, Aspergillus niger. The essentials: as §3

Converted amounts (≈) assume the structure as drawn. Where two headings read alike, the source gives them in different places. Peptide text beside a SMILES is read from it.

For `CC[C@H](C)[C@H](NC(=O)[C@@H](NC(=O)[C@H](CO)NC(=O)CN)C(C)C)C(=O)N[C@@H](CCCCN)C(=O)N[C@@H](CCCCN)C(=O)N[C@@H](CCCNC(=N)N)C(=O)N[C@@H](CCCNC(=N)N)C(=O)N[C@@H](CCCCN)C(=O)N[C@@H](CCCNC(=N)N)C(=O)N[C@@H](CCSC)C(=O)N[C@@H](CO)C(=O)N[C@@H](CCCCN)C(=O)N[C@@H](CCCCN)C(=O)N[C@@H](CCCCN)C(=O)N[C@@H](Cc1c[nH]cn1)C(=O)N[C@@H](CCCNC(=N)N)C(=O)N[C@@H](CCCCN)C(=O)N[C@@H](CCSC)C(=O)N[C@@H](CC(C)C)C(=O)N[C@@H](CCCNC(=N)N)C(=O)N[C@@H](CCCNC(=N)N)C(=O)N[C@H](C(=O)N[C@@H](CCCNC(=N)N)C(=O)N[C@H](C(=O)N[C@@H](CCC(N)=O)C(=O)N[C@@H](CCCNC(=N)N)C(=O)N[C@@H](CCCNC(=N)N)C(=O)N[C@@H](CCCCN)C(=O)N[C@@H](CC(C)C)C(=O)NCC(=O)N[C@@H](CCCCN)C(=O)O)C(C)C)[C@@H](C)O` [PF-S028], the MIC with S. mutans stood at 50 µM (≈ 202 µg/mL); in the test on T. rubrum (T. rubrum, Potato Dextrose Agar, 25° C., aerobic, inoculum 10^5 CFU/ml, 18-24 h or 48 h) it was 50 µM (≈ 202 µg/mL); in the test with M. furfur, 2.5 µM (≈ 10.1 µg/mL); in the test on S. epidermidis (S. epidermidis, BHI supplemented with 0.25% glucose, 37° C., aerobic, inoculum 10^5 CFU/ml, 18-24 h or 48 h), 25 µM (≈ 101 µg/mL); against P. aeruginosa it was 50 µM (≈ 202 µg/mL); against MRSA (MRSA, BHI supplemented with 2% glucose, 37° C., aerobic, inoculum 10^5 CFU/ml, 18-24 h or 48 h), 50 µM (≈ 202 µg/mL). The minimal inhibitory concentration (MIC) amounted to 12.5 µM (≈ 50.4 µg/mL) against B. subtilis, 25 µM (≈ 101 µg/mL) with P. gingivalis and 6.25 µM (≈ 25.2 µg/mL) against C. jeikeium.
In the case of `CC[C@H](C)[C@H](NC(=O)[C@H](C)NC(=O)[C@H](CO)NC(=O)[C@H](CC(=O)O)NC(=O)[C@H](Cc1ccc(O)cc1)NC(=O)[C@H](C)NC(=O)[C@@H](NC(=O)[C@H](CC(C)C)NC(=O)[C@H](C)NC(=O)[C@H](CC(C)C)NC(=O)[C@H](CO)NC(=O)CNC(=O)[C@H](Cc1ccccc1)NC(=O)[C@H](CCCNC(=N)N)NC(=O)[C@@H](N)CCSC)C(C)C)C(=O)N[C@@H](CCCCN)C(=O)N[C@@H](Cc1c[nH]cn1)C(=O)N[C@@H](CO)C(=O)N[C@@H](Cc1c[nH]c2ccccc12)C(=O)N1CCC[C@H]1C(=O)N[C@@H](CCCNC(=N)N)C(=O)N1CCC[C@H]1C(=O)N[C@@H](CO)C(=O)N[C@@H](CO)C(=O)N[C@H](C(=O)N[C@@H](CCCNC(=N)N)C(=O)N[C@@H](CCCNC(=N)N)C(=O)N[C@@H](CC(C)C)C(=O)N[C@@H](CCCNC(=N)N)C(=O)N[C@@H](CCSC)C(=O)O)C(C)C` [PF-672] (H-MRFGSLALVAYDSAIKHSWPRPSSVRRLRM-OH; N-terminus and C-terminus assumed), the minimum inhibitory concentration (MIC) was 0.78 µM (≈ 2.72 µg/mL) in the test with T. rubrum; 0.39 µM (≈ 1.36 µg/mL) with S. epidermidis; 3.13 µM (≈ 10.9 µg/mL) with E. faecalis; 1.56 µM (≈ 5.44 µg/mL) against C. albicans; 1.56 µM (≈ 5.44 µg/mL) with MRSA; 0.78 µM (≈ 2.72 µg/mL) against B. subtilis. The compound also returned an MIC in the test with A. niger of 3 µM (≈ 10.5 µg/mL).
